Data published in ChEMBL document CHEMBL1146157, “Synthesis and SAR of 2-(4-fluorophenyl)-3-pyrimidin-4-ylimidazo[1,2-a]pyridine derivatives as anticoccidial agents” (Bioorg Med Chem Lett, 2006).
pIC50: −log10 of the molar value.

Key:
Eimeria tenella [1] = assay: Antiparasitic activity against Eimeria tenella in chicken at 25 ppm in feed assessed as percent reduction in oocyst; format: functional; parameters: scale not given: the % may be the effect or the level left
[2] = target: cGMP-dependent protein kinase (Eimeria tenella, UniProt Q8MMZ8); assay: Inhibition of Eimeria tenella PKG
Eimeria acervulina [3] = assay: Antiparasitic activity against Eimeria acervulina in chicken at 25 ppm in feed assessed as percent reduction in oocyst; format: functional; parameters: scale not given: the % may be the effect or the level left
Eimeria tenella [4] = assay: Antiparasitic activity against Eimeria tenella in chicken at 50 ppm in feed assessed as percent reduction in oocyst; format: functional; parameters: scale not given: the % may be the effect or the level left
Eimeria acervulina [5] = assay: Antiparasitic activity against Eimeria acervulina in chicken at 50 ppm in feed assessed as percent reduction in oocyst; format: functional; parameters: scale not given: the % may be the effect or the level left

Sequence of cGMP-dependent protein kinase (Q8MMZ8 whole entry): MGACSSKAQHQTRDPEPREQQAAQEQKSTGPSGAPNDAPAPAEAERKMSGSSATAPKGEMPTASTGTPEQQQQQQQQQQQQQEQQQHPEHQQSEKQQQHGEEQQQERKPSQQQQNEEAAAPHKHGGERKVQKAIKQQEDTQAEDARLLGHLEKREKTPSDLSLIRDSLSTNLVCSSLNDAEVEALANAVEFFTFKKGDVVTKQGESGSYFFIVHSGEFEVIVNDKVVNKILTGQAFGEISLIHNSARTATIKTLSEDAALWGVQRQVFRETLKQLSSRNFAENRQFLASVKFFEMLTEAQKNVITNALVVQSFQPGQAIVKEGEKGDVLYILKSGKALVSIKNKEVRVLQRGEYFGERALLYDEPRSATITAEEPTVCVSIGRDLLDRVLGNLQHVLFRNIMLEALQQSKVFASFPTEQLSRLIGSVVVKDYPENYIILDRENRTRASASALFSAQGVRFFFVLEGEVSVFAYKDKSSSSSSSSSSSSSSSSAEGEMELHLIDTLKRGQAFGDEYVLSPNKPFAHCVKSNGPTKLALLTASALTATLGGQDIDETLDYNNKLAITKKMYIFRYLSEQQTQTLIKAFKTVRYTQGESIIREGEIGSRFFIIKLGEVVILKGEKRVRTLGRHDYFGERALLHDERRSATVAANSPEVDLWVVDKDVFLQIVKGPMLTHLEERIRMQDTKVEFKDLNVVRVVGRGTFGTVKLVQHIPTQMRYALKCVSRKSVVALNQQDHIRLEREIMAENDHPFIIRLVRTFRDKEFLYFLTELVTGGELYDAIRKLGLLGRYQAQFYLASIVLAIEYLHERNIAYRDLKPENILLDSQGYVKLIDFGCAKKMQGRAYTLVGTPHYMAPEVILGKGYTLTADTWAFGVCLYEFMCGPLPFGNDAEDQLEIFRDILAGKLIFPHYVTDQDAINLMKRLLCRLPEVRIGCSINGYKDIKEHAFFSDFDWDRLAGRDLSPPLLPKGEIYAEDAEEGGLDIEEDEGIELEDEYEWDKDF

pIC50 [2] | Structure (SMILES) | Activity (Eimeria tenella [1]) | Activity (Eimeria acervulina [3]) | Activity (Eimeria tenella [4]) | Activity (Eimeria acervulina [5])
9.49 | C[C@@H](Nc1nccc(-c2c(-c3ccc(F)cc3)nc3cc(CN(C)C)ccn23)n1)c1ccccc1 | >=80% | >=80% |  | 
8.52 | CN(C)Cc1ccn2c(-c3ccnc(N(C)Cc4ccccc4)n3)c(-c3ccc(F)cc3)nc2c1 | <50% | 50% |  | 
9.33 | C[C@H](Nc1nccc(-c2c(-c3ccc(F)cc3)nc3cc(CN(C)C)ccn23)n1)c1ccccc1 | >=80% | <50% |  | 
9.57 | CN(C)Cc1ccn2c(-c3ccnc(OCc4ccccc4)n3)c(-c3ccc(F)cc3)nc2c1 |  |  | <50% | <50%
